Here are results for three compounds from patent US20110195979A1, “COMPOUNDS FOR THE TREATMENT AND PREVENTION OF INFLUENZA” (priority 2010, published 2011).

Read-outs that look alike come from different tables or passages of the source.

The test system of one data set is MDCK cells. The settings on record: dog, 3 day.
Another data set deals with Influenza H1N1 virus. Kind of data set: Viral cytopathic effect (CPE) assay. The class given is cell-based, Influenza A (H1N1). The settings on record: read-out: CPE_EC50. As to the method: Cells and viruses. Madin-Darby canine kidney cell (MDCK) was purchased from American type culture collection (ATCC) and was maintained in minimal essential medium (MEM) containing 10% fetal bovine serum and antibiotics. Influenza A/Weiss/43 (H1N1), A/PR/8/34 (H1N1), and A/Hongkong/8/68 (H3N2) were purchased from ATCC and propagated in 10-day-old embryonated chicken eggs at 37° C. Virus was harvested 48 h after inoculation as pooled allantoic fluid. After a brief centrifugation (3,000 rpm at room temperature for 20 min) and virus titer measurement by a hemagglutination test, virus was aliquoted and stored at a −80° C. freezer.
Viral cytopathic effect (CPE) assay: To measure anti-influenza activity of compounds, MDCK cells were seeded into 96-well plates at a density of 5,000 cells per well. Next day, compounds were serially half-log diluted with Gibco SFM containing trypsin. Compounds and 50 pfu of virus were added into corresponding wells to make m.o.i at 0.01 and a final trypsin concentration of 2.5 μg/ml. The testing plates also contained medium control, cell control, virus control, and compound toxicity control. After a 3-day treatment, cell viability was measured with a MTT (3-(4,5-dimethylthiazol-2-yl)-2,5-diphenyltetrazolium bromide) method. Briefly, 20 μl of MTT diluted in culture medium was added into each wells and incubated at 37° C. for 4 hours. Reduced MTT (formazan) was extracted with acidic isopropanol and absorbance at wavelengths of 570 nm and 630 nm (OD570 and OD630) was read on a microtiter plate reader. After subtraction of background OD values, dose response curves of half-log concentration vs. percent protection were generated, on which half maximal effective concentration (EC50) and half maximal toxic concentration (CC50) were calculated.

The subject of another data set is H3 influenza viruses. The settings on record: cited from earlier work.

As usually defined, the IC50 is the concentration that gives 50% inhibition. Low values mean higher potency, high ones lower potency. As for `CC1(C)CC(O)CC(CNc2cc(F)cc(C(F)(F)F)c2)C1` (single isomer, unassigned) [Example IIi-1/2 Isomer 2, (trans-1,5)-5-[(3-fluoro-5-trifluoromethyl-phenylamino)-methyl]-3,3-dimethyl-cyclohexanol], the IC50 with MDCK cells is 16.8 µM. Further, in the data set on Influenza H1N1 virus (H1N1, MDCK cells, m.o.i 0.01, 3-day treatment, MTT OD, mean of triplicate experiments), the EC50 is under 0.31 µM. In the case of `CC(C)(C)c1cc(O)ccc1O` [TBHQ, tert-butyl hydroquinone], the inhibition of fusion entry in the data set on H3 influenza viruses is “inhibits fusion”. In turn, `CC1(C)CC(O)CC(CNc2cc(F)cc(C(F)(F)F)c2)C1` (single isomer, unassigned) [Example IIi-1/2 Isomer 1, (cis-1,5)-5-[(3-Fluoro-5-trifluoromethyl-phenylamino)-methyl]-3,3-dimethyl-cyclohexanol] displayed an IC50 in the data set with MDCK cells of 8.16 µM. Also, in the data set with Influenza H1N1 virus (Influenza A virus, H1N1, MDCK, 72 h), the EC50 was under 0.31 µM.
